Read-outs that look alike come from different tables or passages of the source.
Assay: in vivo
Details: for Mean concentration of Example 4B: single IM 20 mg/kg equivalent of EFdA
Description: General Protocol for Prodrugs Rat PK Studies Conducted at ChemPartner, China
A total of three naïve male Wistar Han rats, 200-250 g, were received from Beijing VR Laboratory Animal Co. LTD. Following an acclimation period, the animals were assigned to the study based on acceptable health as determined by a staff veterinarian and catheter patency. Fasting of the animals before or after dosing was not required.
On Day 1, each animal received a single intramuscular injection of prepared test article at a target dose level of 20 mg/kg equivalent of EFdA and at a dose volume of 2 mL/kg. The injection sites were at gastrocnemius and identified with an indelible marker for daily monitoring during the study. The animals were manually restrained for dosing and were not sedated. The dose suspension was mixed well by inversion before each dose to ensure homogeneity. […] In addition, all animals are monitored twice daily by the veterinary staff for clinical abnormalities.
Blood samples were collected from the study animals as detailed in the sample collection Table 6 below
Each blood sample for PK (200 μL) was collected from tail vein. The blood was transferred to a tube containing NaF/Na2EDTA anticoagulant and inverted several times to mix. Draw 150 μL whole blood from the tube, add 150 uL 100 mM ammonium acetate, pH 4 buffer and mix well. The resulting blood samples were transferred to individual polypropylene tubes and immediately placed on dry ice until storage at nominally −80° C. prior to LC-MS/MS analysis.

[1] = day 28, single IM Example 2B 20 mg/kg
[2] = day 35, single IM Example 2B 20 mg/kg

## C#C[C@]1(COP(=O)(N[C@@H](Cc2ccccc2)C(=O)OCCCCCCCCCCCCCCCC)Oc2ccccc2)O[C@@H](n2cnc3c(N)nc(F)nc32)C[C@@H]1O (single isomer, unassigned) [Example 2B]
Day 1, single IM Example 2B 20 mg/kg
  Mean concentration of EFdA: BQL (BQL = below quantification limit, 0.2-0.3 ng/mL for both)
Day 7, single IM Example 2B 20 mg/kg
  Mean concentration of EFdA: BQL (BQL = below quantification limit, 0.2-0.3 ng/mL for both)
Day 14, single IM Example 2B 20 mg/kg
  Mean concentration of EFdA: BQL (BQL = below quantification limit, 0.2-0.3 ng/mL for both)
Day 21, single IM Example 2B 20 mg/kg
  Mean concentration of EFdA: BQL (BQL = below quantification limit, 0.2-0.3 ng/mL for both)
[1]
  Mean concentration of EFdA: BQL (BQL = below quantification limit, 0.2-0.3 ng/mL for both)
  Mean concentration of Example 2B: BQL (BQL = below quantification limit, 0.2-0.3 ng/mL for both)
[2]
  Mean concentration of EFdA: BQL (BQL = below quantification limit, 0.2-0.3 ng/mL for both)
  Mean concentration of Example 2B: BQL (BQL = below quantification limit, 0.2-0.3 ng/mL for both)
male, Wistar Han, rat, in vivo, day 1, single IM Example 2B 20 mg/kg, read-out: Mean concentration of Example 2B
  concentration at 1 day: 0.514 ng/mL
male, Wistar Han, rat, in vivo, day 7, single IM Example 2B 20 mg/kg, read-out: Mean concentration of Example 2B
  concentration at 7 day: 0.708 ng/mL
male, Wistar Han, rat, in vivo, day 14, single IM Example 2B 20 mg/kg, read-out: Mean concentration of Example 2B
  concentration at 14 day: 1.11 ng/mL
male, Wistar Han, rat, in vivo, day 21, single IM Example 2B 20 mg/kg, read-out: Mean concentration of Example 2B
  concentration at 21 day: 1.33 ng/mL

## C#C[C@]1(COP(=O)(N[C@@H](Cc2cc(F)cc(F)c2)C(=O)OCCCCCCCCCCCCCCCCCC)Oc2ccccc2)O[C@@H](n2cnc3c(N)nc(F)nc32)C[C@@H]1O (single isomer, unassigned) [Example 40A]
Day 14, single IM Example 40A 60 mg/kg
  Mean concentration of EFdA: BQL (BQL = below quantification limit, 0.3 ng/ml for both)
Day 21, single IM Example 40A 60 mg/kg
  Mean concentration of EFdA: BQL (BQL = below quantification limit, 0.3 ng/ml for both)
Day 28, single IM Example 40A 60 mg/kg
  Mean concentration of EFdA: BQL (BQL = below quantification limit, 0.3 ng/ml for both)
Day 35, single IM Example 40A 60 mg/kg
  Mean concentration of EFdA: BQL (BQL = below quantification limit, 0.3 ng/ml for both)
Day 42, single IM Example 40A 60 mg/kg
  Mean concentration of EFdA: BQL (BQL = below quantification limit, 0.3 ng/ml for both)
Day 49, single IM Example 40A 60 mg/kg
  Mean concentration of EFdA: BQL (BQL = below quantification limit, 0.3 ng/ml for both)
Day 56, single IM Example 40A 60 mg/kg
  Mean concentration of EFdA: BQL (BQL = below quantification limit, 0.3 ng/ml for both)
Day 63, single IM Example 40A 60 mg/kg
  Mean concentration of EFdA: BQL (BQL = below quantification limit, 0.3 ng/ml for both)
Day 70, single IM Example 40A 60 mg/kg
  Mean concentration of EFdA: BQL (BQL = below quantification limit, 0.3 ng/ml for both)
Day 77, single IM Example 40A 60 mg/kg
  Mean concentration of EFdA: BQL (BQL = below quantification limit, 0.3 ng/ml for both)
Day 84, single IM Example 40A 60 mg/kg
  Mean concentration of EFdA: BQL (BQL = below quantification limit, 0.3 ng/ml for both)
male, Wistar Han, rat, in vivo, day 1, single IM Example 40A 60 mg/kg, read-out: Mean concentration of Example 40A
  concentration at 1 day: 59.2 ng/mL
male, Wistar Han, rat, in vivo, day 7, single IM Example 40A 60 mg/kg, read-out: Mean concentration of Example 40A
  concentration at 7 day: 22.4 ng/mL
male, Wistar Han, rat, in vivo, day 14, single IM Example 40A 60 mg/kg, read-out: Mean concentration of Example 40A
  concentration at 14 day: 11.2 ng/mL
male, Wistar Han, rat, in vivo, day 21, single IM Example 40A 60 mg/kg, read-out: Mean concentration of Example 40A
  concentration at 21 day: 11.2 ng/mL
male, Wistar Han, rat, in vivo, day 28, single IM Example 40A 60 mg/kg, read-out: Mean concentration of Example 40A
  concentration at 28 day: 12.7 ng/mL
male, Wistar Han, rat, in vivo, day 35, single IM Example 40A 60 mg/kg, read-out: Mean concentration of Example 40A
  concentration at 35 day: 12.6 ng/mL
male, Wistar Han, rat, in vivo, day 42, single IM Example 40A 60 mg/kg, read-out: Mean concentration of Example 40A
  concentration at 42 day: 13.2 ng/mL
male, Wistar Han, rat, in vivo, day 49, single IM Example 40A 60 mg/kg, read-out: Mean concentration of Example 40A
  concentration at 49 day: 11.7 ng/mL
male, Wistar Han, rat, in vivo, day 56, single IM Example 40A 60 mg/kg, read-out: Mean concentration of Example 40A
  concentration at 56 day: 14.7 ng/mL
male, Wistar Han, rat, in vivo, day 63, single IM Example 40A 60 mg/kg, read-out: Mean concentration of Example 40A
  concentration at 63 day: 13 ng/mL
male, Wistar Han, rat, in vivo, day 70, single IM Example 40A 60 mg/kg, read-out: Mean concentration of Example 40A
  concentration at 70 day: 12.2 ng/mL
male, Wistar Han, rat, in vivo, day 77, single IM Example 40A 60 mg/kg, read-out: Mean concentration of Example 40A
  concentration at 77 day: 11.7 ng/mL
male, Wistar Han, rat, in vivo, day 84, single IM Example 40A 60 mg/kg, read-out: Mean concentration of Example 40A
  concentration at 84 day: 10.3 ng/mL

## C#C[C@]1(COP(=O)(N[C@@H](Cc2ccccc2)C(=O)OCCCCCCCCCC)Oc2ccccc2)O[C@@H](n2cnc3c(N)nc(F)nc32)C[C@@H]1O (single isomer, unassigned) [Example 4B]
Day 0.0208
  Mean concentration of Example 4B: BQL (BQL = below quantification limit, 0.5 ng/mL for Example 4B and 0.5 to 1 ng/mL for EFdA)
Day 0.0417
  Mean concentration of Example 4B: BQL (BQL = below quantification limit, 0.5 ng/mL for Example 4B and 0.5 to 1 ng/mL for EFdA)
Day 0.125
  Mean concentration of Example 4B: BQL (BQL = below quantification limit, 0.5 ng/mL for Example 4B and 0.5 to 1 ng/mL for EFdA)
Day 0.208
  Mean concentration of Example 4B: BQL (BQL = below quantification limit, 0.5 ng/mL for Example 4B and 0.5 to 1 ng/mL for EFdA)
Day 0.292
  Mean concentration of Example 4B: BQL (BQL = below quantification limit, 0.5 ng/mL for Example 4B and 0.5 to 1 ng/mL for EFdA)
Day 1
  Mean concentration of Example 4B: BQL (BQL = below quantification limit, 0.5 ng/mL for Example 4B and 0.5 to 1 ng/mL for EFdA)
Day 2
  Mean concentration of Example 4B: BQL (BQL = below quantification limit, 0.5 ng/mL for Example 4B and 0.5 to 1 ng/mL for EFdA)
Day 3
  Mean concentration of Example 4B: BQL (BQL = below quantification limit, 0.5 ng/mL for Example 4B and 0.5 to 1 ng/mL for EFdA)
Day 4
  Mean concentration of Example 4B: BQL (BQL = below quantification limit, 0.5 ng/mL for Example 4B and 0.5 to 1 ng/mL for EFdA)
Day 5
  Mean concentration of Example 4B: BQL (BQL = below quantification limit, 0.5 ng/mL for Example 4B and 0.5 to 1 ng/mL for EFdA)
Day 7
  Mean concentration of Example 4B: BQL (BQL = below quantification limit, 0.5 ng/mL for Example 4B and 0.5 to 1 ng/mL for EFdA)
Day 14, single IM Example 4B 20 mg/kg equivalent of EFdA
  Mean concentration of EFdA: BQL (BQL = below quantification limit, 0.5 ng/mL for Example 4B and 0.5 to 1 ng/mL for EFdA)
Day 17, single IM Example 4B 20 mg/kg equivalent of EFdA
  Mean concentration of EFdA: BQL (BQL = below quantification limit, 0.5 ng/mL for Example 4B and 0.5 to 1 ng/mL for EFdA)
Day 21, single IM Example 4B 20 mg/kg equivalent of EFdA
  Mean concentration of EFdA: BQL (BQL = below quantification limit, 0.5 ng/mL for Example 4B and 0.5 to 1 ng/mL for EFdA)
Day 24, single IM Example 4B 20 mg/kg equivalent of EFdA
  Mean concentration of EFdA: BQL (BQL = below quantification limit, 0.5 ng/mL for Example 4B and 0.5 to 1 ng/mL for EFdA)
Day 28, single IM Example 4B 20 mg/kg equivalent of EFdA
  Mean concentration of EFdA: BQL (BQL = below quantification limit, 0.5 ng/mL for Example 4B and 0.5 to 1 ng/mL for EFdA)
Day 31, single IM Example 4B 20 mg/kg equivalent of EFdA
  Mean concentration of EFdA: BQL (BQL = below quantification limit, 0.5 ng/mL for Example 4B and 0.5 to 1 ng/mL for EFdA)

— patent publication US20230151049A1, “Compounds Useful in HIV Therapy” (priority 2020, published 2023)
